Results on three compounds are retold here after publication PMC5355235, “FLT3 activating mutations display differential sensitivity to multiple tyrosine kinase inhibitors” (Oncotarget, 2017).

Like-named read-outs stand apart in the source and are kept apart here.

Common to all, as to type: cell-based
The subject of experiment [1] is BaF3/ITD cells. The experiment in a line: MTT growth inhibition assay, BaF3 FLT3-ITD cells. The conditions noted are these: Mus musculus, no IL-3, 48 h, read-out: Proliferation IC50. The procedure: (§1) Figure 1 Growth of AL mutants in the presence of FLT3 TKI The BaF3 AL mutants were grown in the absence of IL-3 and analyzed by treatment in increasing concentrations of FLT3 TKI for 48 hours, after which growth inhibition was assessed using the MTT assay. Means are representative of at least three independent experiments.
(§2) The cells were grown in the absence of IL3 and analyzed by treatment in increasing concentrations of FLT3 TKI for 48 hours, after which growth inhibition was assessed using the MTT assay. Each experiment was performed at least three times and representative results are shown.
(§3) Based on Trypan Blue exclusion, 2 × 10^4 viable cells were seeded in quadruplicate in a 96-well microtiter plate in the presence or absence of inhibitor for 48 h. The effect of drug activity on cell viability was measured using the 3-(4,5-Dimethylthiazol-2-yl)-2,5-diphenyltetrazolium bromide (MTT) assay according to the manufacturer's instructions (Roche Applied Science, Indianapolis, IN, USA). Following treatment, cells were incubated for 4 h in MTT followed by dissolution in solubilization buffer overnight. Absorbance was measured at 570 nm on a Bio-Rad plate reader (Hercules, CA, USA). […] Results shown are presented as means and are representative of at least three independent experiments.

In experiment [2] the test system is BaF3 FLT3 D835Y mutant cells. The experiment in a line: MTT growth inhibition assay, BaF3 FLT3 D835Y cells. The conditions noted are these: Mus musculus, no IL-3, 48 h, read-out: Proliferation IC50. Here is the method: as §1, §2, §3
Experiment [3] deals with BaF3 FLT3 D835A mutant cells. The experiment in a line: MTT growth inhibition assay, BaF3 FLT3 D835A cells. The conditions noted are these: Mus musculus, read-out: Proliferation IC50. Here is the method: as §1, §2, §3
Experiment [4] deals with BaF3 FLT3 D835G mutant cells. In words: MTT growth inhibition assay, BaF3 FLT3 D835G cells. The conditions noted are these: Mus musculus, no IL-3, 48 h, read-out: Proliferation IC50. The procedure:
as §1, §2, §3

Experiment [5] deals with BaF3 FLT3 D835N mutant cells. In words: MTT growth inhibition assay, BaF3 FLT3 D835N cells. The conditions noted are these: Mus musculus, no IL-3, 48 h, read-out: Proliferation IC50. The procedure:
as §1, §2, §3

The test system of experiment [6] is BaF3 FLT3 D835L+K mutant cells. The experiment in a line: MTT growth inhibition assay, BaF3 FLT3 D835L+K cells. The conditions noted are these: Mus musculus, no IL-3, 48 h, read-out: Proliferation IC50. Here is the method: as §1, §2, §3
Experiment [7] has as its system BaF3 FLT3 I836L+D mutant cells. In words: MTT growth inhibition assay, BaF3 FLT3 I836L+D cells. The conditions noted are these: Mus musculus, no IL-3, 48 h, read-out: Proliferation IC50. The procedure: as §1, §2, §3
The test system of experiment [8] is BaF3 FLT3 I836S mutant cells. The experiment in a line: MTT growth inhibition assay, BaF3 FLT3 I836S cells. The conditions noted are these: Mus musculus, read-out: Proliferation IC50. Here is the method: as §1, §2, §3
Experiment [9] has as its system BaF3 FLT3 I836T mutant cells. The experiment in a line: MTT growth inhibition assay, BaF3 FLT3 I836T cells. The conditions noted are these: Mus musculus, no IL-3, 48 h, read-out: Proliferation IC50. The procedure: as §1, §2, §3
Experiment [10] has as its system BaF3 FLT3 840G+S mutant cells. The experiment in a line: MTT growth inhibition assay, BaF3 FLT3 840G+S cells. The conditions noted are these: Mus musculus, no IL-3, 48 h, read-out: Proliferation IC50. The procedure:
as §1, §2, §3

Experiment [11] deals with BaF3 FLT3 D593D mutant cells. In words: MTT growth inhibition assay, BaF3 FLT3 D593D cells. The conditions noted are these: Mus musculus, no IL-3, 48 h, read-out: Proliferation IC50. Here is the method:
as §1, §2, §3

The mark [12] stands for this setting: BaF3 FLT3 D835A, no IL-3, 48 h, MTT.
The mark [13] stands for this setting: BaF3 FLT3 I836S, no IL-3, 48 h, MTT.

In the case of `Cc1cc2ncc(-c3ccccc3)nc2cc1C` [AG1295], the IC50 in experiment [1] was 298 nM; in [2], over 3000 nM; in experiment [3] (setting [12]), 1970 nM; in experiment [4] it was 423 nM; in experiment [5], 411 nM; in experiment [6], over 3000 nM. Also, the IC50 in experiment [7] is over 3000 nM; in experiment [8] (setting [13]), over 3000 nM; in experiment [9], over 3000 nM; in experiment [10], 500 nM; in [11] it was over 3000 nM.

`CC1(COc2ccc3c(c2)ncn3-c2ccc3cccc(N4CCC(N)CC4)c3n2)COC1` [Crenolanib]: the IC50 in experiment [1] is 57 nM; in [2], 58 nM; in [3] (setting [12]) it was 78.1 nM; in [4], 110 nM; in experiment [5] it was 80 nM; in experiment [6] it was over 1000 nM. In addition, the IC50 in experiment [7] was 50 nM; in experiment [8] (setting [13]), over 1000 nM; in [9], over 1000 nM; in experiment [10] it was 83 nM; in experiment [11], 70 nM.

For the compound `Cc1ccc(C(=O)Nc2ccc(CN3CCN(C)CC3)c(C(F)(F)F)c2)cc1C#Cc1cnc2cccnn12` [Ponatinib], the IC50 was under 1 nM in experiment [1]; 92 nM in [2]; 148 nM in experiment [3] (BaF3, 48 h); under 1 nM in [4]; under 1 nM in [5]; over 1000 nM in experiment [6]. Besides, the IC50 is under 1 nM in [7]; over 1000 nM in experiment [8] (BaF3, 48 h); over 1000 nM in experiment [9]; under 1 nM in experiment [10]; 10.7 nM in [11].
